In patent publication US20070149465A1, “COMPOSITIONS AND METHODS FOR PREVENTION AND TREATMENT OF CACHEXIA” (priority 2005, published 2007):

Test: Aqueous stability of roxithromycin (% Purity by HPLC)
Format: physicochemical
Conditions: for Roxithromycin % Purity By Area Normalization: 2 mg/mL
Experimental: Roxithromycin stability was determined for 2 mg/mL [roxithromycin] at 5, 25, and 40° C. as a function of pH and buffer (citrate) concentration. Roxithromycin %Purity was determined by area normalization using a reverse-phase HPLC method that meets the requirements of the EP Monograph. Solution pH values were determined per USP <791>.

## CC[C@H]1OC(=O)[C@H](C)[C@@H](O[C@H]2C[C@@](C)(OC)[C@@H](O)[C@H](C)O2)[C@H](C)[C@@H](O[C@@H]2O[C@H](C)C[C@H](N(C)C)[C@H]2O)[C@](C)(O)C[C@@H](C)/C(=N\OCOCCOC)[C@H](C)[C@@H](O)[C@]1(C)O [roxithromycin]
2 mg/mL roxithromycin, 20 mM citrate buffer at pH 6
  stability of aqueous formulation: satisfactory
25° C., citrate pH 4, 20 mM, 0 mo
  Roxithromycin % Purity By Area Normalization: 81%
25° C., citrate pH 4, 20 mM, 0.3 mo
  Roxithromycin % Purity By Area Normalization: 74%
25° C., citrate pH 4, 20 mM, 0.5 mo
  Roxithromycin % Purity By Area Normalization: 70%
25° C., citrate pH 4, 20 mM, 0.9 mo
  Roxithromycin % Purity By Area Normalization: 65%
25° C., citrate pH 4, 20 mM, 1.5 mo
  Roxithromycin % Purity By Area Normalization: 56%
25° C., citrate pH 4, 20 mM, 2.6 mo
  Roxithromycin % Purity By Area Normalization: 48%
25° C., citrate pH 4, 20 mM, 5.3 mo
  Roxithromycin % Purity By Area Normalization: 28%
25° C., citrate pH 4, 20 mM, 7.3 mo
  Roxithromycin % Purity By Area Normalization: 15%
25° C., citrate pH 4, 50 mM, 0 mo
  Roxithromycin % Purity By Area Normalization: 78%
25° C., citrate pH 4, 50 mM, 0.3 mo
  Roxithromycin % Purity By Area Normalization: 71%
25° C., citrate pH 4, 50 mM, 0.5 mo
  Roxithromycin % Purity By Area Normalization: 65%
25° C., citrate pH 4, 50 mM, 0.9 mo
  Roxithromycin % Purity By Area Normalization: 59%
25° C., citrate pH 4, 50 mM, 1.5 mo
  Roxithromycin % Purity By Area Normalization: 47%
25° C., citrate pH 4, 50 mM, 2.6 mo
  Roxithromycin % Purity By Area Normalization: 33%
25° C., citrate pH 4, 50 mM, 5.3 mo
  Roxithromycin % Purity By Area Normalization: 15%
25° C., citrate pH 4, 50 mM, 7.3 mo
  Roxithromycin % Purity By Area Normalization: 6%
25° C., citrate pH 5, 20 mM, 0 mo
  Roxithromycin % Purity By Area Normalization: 96%
25° C., citrate pH 5, 20 mM, 0.3 mo
  Roxithromycin % Purity By Area Normalization: 88%
25° C., citrate pH 5, 20 mM, 0.5 mo
  Roxithromycin % Purity By Area Normalization: 84%
25° C., citrate pH 5, 20 mM, 0.9 mo
  Roxithromycin % Purity By Area Normalization: 80%
25° C., citrate pH 5, 20 mM, 1.5 mo
  Roxithromycin % Purity By Area Normalization: 77%
25° C., citrate pH 5, 20 mM, 2.6 mo
  Roxithromycin % Purity By Area Normalization: 75%
25° C., citrate pH 5, 20 mM, 5.3 mo
  Roxithromycin % Purity By Area Normalization: 75%
25° C., citrate pH 5, 20 mM, 7.3 mo
  Roxithromycin % Purity By Area Normalization: 71%
25° C., citrate pH 5, 50 mM, 0 mo
  Roxithromycin % Purity By Area Normalization: 92%
25° C., citrate pH 5, 50 mM, 0.3 mo
  Roxithromycin % Purity By Area Normalization: 82%
25° C., citrate pH 5, 50 mM, 0.5 mo
  Roxithromycin % Purity By Area Normalization: 78%
25° C., citrate pH 5, 50 mM, 0.9 mo
  Roxithromycin % Purity By Area Normalization: 77%
25° C., citrate pH 5, 50 mM, 1.5 mo
  Roxithromycin % Purity By Area Normalization: 74%
25° C., citrate pH 5, 50 mM, 2.6 mo
  Roxithromycin % Purity By Area Normalization: 71%
25° C., citrate pH 5, 50 mM, 5.3 mo
  Roxithromycin % Purity By Area Normalization: 67%
25° C., citrate pH 5, 50 mM, 7.3 mo
  Roxithromycin % Purity By Area Normalization: 59%
25° C., citrate pH 5, 100 mM, 0 mo
  Roxithromycin % Purity By Area Normalization: 90%
25° C., citrate pH 5, 100 mM, 0.3 mo
  Roxithromycin % Purity By Area Normalization: 79%
25° C., citrate pH 5, 100 mM, 0.5 mo
  Roxithromycin % Purity By Area Normalization: 76%
25° C., citrate pH 6, 20 mM, 0 mo
  Roxithromycin % Purity By Area Normalization: 98%
25° C., citrate pH 6, 20 mM, 0.3 mo
  Roxithromycin % Purity By Area Normalization: 97%
25° C., citrate pH 6, 20 mM, 0.5 mo
  Roxithromycin % Purity By Area Normalization: 96%
25° C., citrate pH 6, 20 mM, 0.9 mo
  Roxithromycin % Purity By Area Normalization: 96%
25° C., citrate pH 6, 20 mM, 1.5 mo
  Roxithromycin % Purity By Area Normalization: 94%
25° C., citrate pH 6, 20 mM, 2.6 mo
  Roxithromycin % Purity By Area Normalization: 92%
25° C., citrate pH 6, 20 mM, 5.3 mo
  Roxithromycin % Purity By Area Normalization: 90%
25° C., citrate pH 6, 20 mM, 7.3 mo
  Roxithromycin % Purity By Area Normalization: 87%
25° C., citrate pH 6, 50 mM, 0 mo
  Roxithromycin % Purity By Area Normalization: 98%
25° C., citrate pH 6, 50 mM, 0.3 mo
  Roxithromycin % Purity By Area Normalization: 96%
25° C., citrate pH 6, 50 mM, 0.5 mo
  Roxithromycin % Purity By Area Normalization: 94%
25° C., citrate pH 6, 50 mM, 0.9 mo
  Roxithromycin % Purity By Area Normalization: 92%
25° C., citrate pH 6, 50 mM, 1.5 mo
  Roxithromycin % Purity By Area Normalization: 89%
25° C., citrate pH 6, 50 mM, 2.6 mo
  Roxithromycin % Purity By Area Normalization: 85%
25° C., citrate pH 6, 50 mM, 5.3 mo
  Roxithromycin % Purity By Area Normalization: 81%
25° C., citrate pH 6, 50 mM, 7.3 mo
  Roxithromycin % Purity By Area Normalization: 78%
40° C., citrate pH 4, 20 mM, 0 mo
  Roxithromycin % Purity By Area Normalization: 81%
40° C., citrate pH 4, 20 mM, 0.3 mo
  Roxithromycin % Purity By Area Normalization: 27%
40° C., citrate pH 4, 20 mM, 0.5 mo
  Roxithromycin % Purity By Area Normalization: 10%
40° C., citrate pH 4, 20 mM, 0.9 mo
  Roxithromycin % Purity By Area Normalization: 2%
40° C., citrate pH 4, 50 mM, 0 mo
  Roxithromycin % Purity By Area Normalization: 78%
40° C., citrate pH 4, 50 mM, 0.3 mo
  Roxithromycin % Purity By Area Normalization: 15%
40° C., citrate pH 4, 50 mM, 0.5 mo
  Roxithromycin % Purity By Area Normalization: 3%
40° C., citrate pH 4, 50 mM, 0.9 mo
  Roxithromycin % Purity By Area Normalization: 1%
40° C., citrate pH 5, 20 mM, 0 mo
  Roxithromycin % Purity By Area Normalization: 96%
40° C., citrate pH 5, 20 mM, 0.3 mo
  Roxithromycin % Purity By Area Normalization: 74%
40° C., citrate pH 5, 20 mM, 0.5 mo
  Roxithromycin % Purity By Area Normalization: 66%
40° C., citrate pH 5, 20 mM, 0.9 mo
  Roxithromycin % Purity By Area Normalization: 60%
40° C., citrate pH 5, 20 mM, 1.5 mo
  Roxithromycin % Purity By Area Normalization: 50%
40° C., citrate pH 5, 20 mM, 2.6 mo
  Roxithromycin % Purity By Area Normalization: 36%
40° C., citrate pH 5, 20 mM, 5.3 mo
  Roxithromycin % Purity By Area Normalization: 21%
40° C., citrate pH 5, 50 mM, 0 mo
  Roxithromycin % Purity By Area Normalization: 92%
40° C., citrate pH 5, 50 mM, 0.3 mo
  Roxithromycin % Purity By Area Normalization: 66%
40° C., citrate pH 5, 50 mM, 0.5 mo
  Roxithromycin % Purity By Area Normalization: 55%
40° C., citrate pH 5, 50 mM, 0.9 mo
  Roxithromycin % Purity By Area Normalization: 44%
40° C., citrate pH 5, 50 mM, 1.5 mo
  Roxithromycin % Purity By Area Normalization: 28%
40° C., citrate pH 5, 50 mM, 2.6 mo
  Roxithromycin % Purity By Area Normalization: 13%
40° C., citrate pH 5, 50 mM, 5.3 mo
  Roxithromycin % Purity By Area Normalization: 3%
40° C., citrate pH 5, 100 mM, 0 mo
  Roxithromycin % Purity By Area Normalization: 90%
40° C., citrate pH 5, 100 mM, 0.3 mo
  Roxithromycin % Purity By Area Normalization: 60%
